The values that follow come from patent US20160175485A1, “COMBINATION THERAPY TO PROMOTE WOUND HEALING” (THE REGENTS OF THE UNIVERSITY OF CALIFORNIA, priority 2013, published 2016).

The test system of series [1] is BM-MSC. Nature of the series: Secreted IL-6 ELISA in BM-MSC. The format is cell-based, human. Conditions: for increase in IL-6 secretion as compared to untreated control cells: four hours, EPI 50 nM, MALP2 100 ng/ml, HKSA 10^4 cells/ml. The text has this: (§1) Human bone marrow aspirations obtained from four healthy donors were purchased from Lonza. MSC were harvested from bone marrow (BM) following established protocols (26, 27), and used between passages 3-5. Characterization of MSC included differentiation into osteogenic and adipogenic lineage cells, as described previously (27). The stem cell research oversight (SCRO) review board at the University of California, Davis approved all the human cell protocols.
(§2) Epinephrine (EPI: Sigma) and TLR2 ligands (macrophage activating lipoprotein-2: MALP2—that specifically activates TLR2/6 heterodimerization, and heat killed Staphylococcus aureus: HKSA; Invivogen) treatments were carried out at the indicated times and concentrations. All the cells were maintained in 0.5% fetal bovine serum containing culture medium overnight prior to treatment. Cells were exposed to different treatments in fresh serum-free medium. In some experiments, cells were pretreated for 30 minutes with Timolol (10 μM; Sigma) or ICI-118, 551 (ICI; 10 μM; Tocris) followed by EPI and MALP2 treatment as described previously (11-13, 30).
(§3) Levels of interleukin-6 (IL-6) were measured with an ELISA kit (R&D systems). IL-6 levels were normalized to total cell protein and expressed as pg/μg protein β1).
Background: An ELISA detects its analyte on a solid surface through an enzyme-linked reagent.

In series [2] the test system is NHK. Nature of the series: Secreted IL-6 ELISA in NHK. Conditions: for increase in IL-6 secretion as compared to untreated NHK: four hours, EPI 50 nM, MALP2 100 ng/ml, HKSA 10^4 cells/ml. The format is cell-based, human.
Text: NHK were isolated from human neonatal foreskins, cultured and maintained, as reported earlier (28,29). NHKs isolated from at least three different foreskins and between passages 3 and 7 were used in all the experiments. The Institutional Review Board at UC Davis approved the protocol for obtaining discarded neonatal foreskins.
as §2, §3

Series [3] concerns BM-MSC. Nature of the series: Real time PCR (TLR2, ADRB2 mRNA) in BM-MSC. The format is cell-based, human. As to the method:
as §2
mRNA expression was determined by real-time PCR (RT-PCR), using sequence-specific primers and probes. Total RNA was extracted from the cells using Qiagen RNeasy mini kit. The first strand of cDNA was synthesized using 1 μg of total RNA. cDNA (50 ng) was amplified using primer probe sets for TLR2, beta-2-adrenergic receptor (ADRB2) and three housekeeping genes: beta-2-microglobulin, GAPDH, and RPLPO using standard cycling parameters. Data were calculated using the 2-ΔΔCt method and are presented as fold change (ratio of transcripts of gene normalized to the three house-keeping genes) (11-13, 31).
(Quantitative PCR measures a nucleic acid by following its amplification.)

The subject of series [4] is BM-MSC. Nature of the series: Western blots in BM-MSC. The format is cell-based, human. The protocol: as §2
(§4) Twenty five μg of total protein was resolved, transferred, and probed with antibodies for β2-AR (Abcam), phospho beta-adrenergic receptor activated kinase-1 (BARK-1/GRK2 referred to as BARK-1 from here after; GeneTex), TLR2 (Imgenex) Myeloid differentiation factor 88 (MyD88; Imgenex), phospho interleukin receptor activated kinase-1 (pIRAK-1 and IRAK-1; Cell Signaling), phospho ERK1/2 (Santacruz), phenylethanolamine N-methyltransferase (PNMT) and tyrosine hydroxylase (TH), and stripped membranes were further incubated with respective total antibodies or GAPDH or α-tubulin. TLR2 (Imgenex) and β2-AR (Santacruz) antibodies were used for co-immunoprecipation assays and antibody protein complexes were further probed with above antibodies β1). Protein A/G-sepharose beads and isotype matched IgG antibodies were used as negative controls in all the co-immunoprecipitation experiments along with the antibody used for the pull down as a positive control. Band intensities were determined as described previously and normalized to GAPDH/α-tubulin or total protein (BARK-1) and densitometric ratios are presented as fold change vs control β1). For some experiments, cell lysates from three independent experiments were pooled to get enough protein for the assay and repeated three times for densitometry purposes.
In general terms: Immunoblotting shows a protein as a band on a membrane.

Another series deals with C57BL/6J mice. The experiment in a line: Full-thickness cutaneous wounds in EPI stressed mice (osmotic pumps). The format is in vivo, mouse. Conditions: for wound closure: EPI 7 mg/kg body weight/day, ICI 0.7 mg/kg body weight/day by osmotic pump; for TLR2 expression in wound tissue: day 7 after injury; for IL-6 levels in the wound tissue / phosphorylation of ERK1/2 in wounds: mouse, in vivo. As to the method:
C57BL/6J (male; 8-10 week age; Jax Mice) with ad libitum access to food and water were anesthetized using isoflurane and one 6 mm circular diameter full-thickness wound was placed on the dorsal shaved skin β1). Micro-osmotic pumps (0.25 μl/hour; Alzet micro-osmotic pump Model: 1002, Alzet) were implanted on the right flank of the mice to deliver 7 mg/kg body weight/day EPI and 0.7 mg/kg body weight/day of ICI) as we have previously reported (11-13,30). At 7 or 11 days after injury, the mice were euthanized, the wound tissue was harvested by 8 mm punch excision and stored frozen or formalin—fixed until further analysis. Animal protocols were approved by the IACUC at UC Davis.

Another series deals with murine macrophages. The settings on record: epinephrine pretreatment; cited from earlier work.
Series [5] has as its system monocytic cell line and rat macrophages. Conditions: supraphysiologic levels of EPI (5000-10,000 ng/ml); cited from earlier work.
In the next series the test system is RAW 264.7 macrophages. Conditions: cited from earlier work.
Series [6] has as its system NHK. The experiment in a line: Scratch wound assay in confluent NHK cultures. The format is cell-based, human. The settings on record: 30 minutes pretreatment; for IL-6 secretion in wounded NHK confluent sheets: antagonists 10 μM; for effect on EPI+MALP2 or EPI+HKSA delayed NHK migration: scratch-wounded NHK, antagonist 10 μM. As to the method: as §3
The rate of healing scratch wounds made in confluent NHK cultures was determined as reported previously (30, 32). Briefly, cells were pretreated with 10 μg/ml mitomycin (EMD Millipore) for 1 hr to inhibit cell proliferation that could skew the data analysis. Wounded cultures were incubated in growth medium (control) containing EPI, TLR2 ligands, and/or Timolol or ICI. Velocity Image analysis software (Perkin Elmer) was used to measure the scratch wound area, which is expressed as percent closed wound.

The subject of another series is Bone marrow MSCs. The experiment in a line: BM-MSC migration tracked for 12 hours after antagonist treatment (FIG. 11). The format is cell-based, human. The settings on record: treated 1 hour, tracked 12 hours. The protocol:
FIG. 11 illustrates that results are not limited to one class of beta adrenergic antagonist. Bone marrow MSCs from two different individuals were cultured and treated with either a non-specific beta adrenergic receptor antagonist (timolol) or a beta 2 adrenergic receptor specific antagonist (ICI 118,551) at stated concentrations for 1 hour, then cell migration was tracked for 12 hours. For each experiment 80-90 cells were tracked. Means+/−SEM shown, *=p<0.005.

Series [7] deals with BM-MSC. The experiment in a line: Single-cell migration of BM-MSC. The format is cell-based, human. Conditions: EPI 50 nM, MALP2 100 ng/ml, Timolol 10 μM, 30 min pretreatment.
Text: as §1, §2

Series [8] has as its system NHK. Nature of the series: Western blots (PNMT, TH) in NHK. The format is cell-based, human. As to the method:
as §2
Twenty five μg of total protein was resolved, transferred, and probed with antibodies for β2-AR (Abcam), phospho beta-adrenergic receptor activated kinase-1 (BARK-1/GRK2 referred to as BARK-1 from here after; GeneTex), TLR2 (Imgenex) Myeloid differentiation factor 88 (MyD88; Imgenex), phospho interleukin receptor activated kinase-1 (pIRAK-1 and IRAK-1; Cell Signaling), phospho ERK1/2 (Santacruz), phenylethanolamine N-methyltransferase (PNMT) and tyrosine hydroxylase (TH), and stripped membranes were further incubated with respective total antibodies or GAPDH or α-tubulin. TLR2 (Imgenex) and β2-AR (Santacruz) antibodies were used for co-immunoprecipation assays and antibody protein complexes were further probed with above antibodies β1). […]

The subject of series [9] is NHK. Nature of the series: Co-immunoprecipitation with β2-AR and TLR2 antibody in NHK. The format is cell-based, human. Conditions: MALP2 100 ng/ml.
Text: as §4

Series [10] has as its system BM-MSC. Nature of the series: HPLC detection of catecholamines in BM-MSC supernatants. The format is cell-based, human. Conditions: MALP2 100 ng/ml. The protocol: (§5) Cell culture samples from at least from three independent experiments were acidified with perchloric acid to 0.2N prior to storage at −80° C. for future analysis. The supernatant were applied to conditioned MonoSpin® PBA solid phase extraction spin columns (GL Sciences) and purifications were performed according to the manufacturer's specifications. Catecholamines were eluted in 200 μL of 2% acetic acid.
(§6) HPLC separation was performed using a Synergi™ 4 um Fusion-reverse phase 250×4.6 mm column (Phenomenex) and a HP series 1050 pump and auto injector system. The mobile phase for chromatographic separation was a modification of that used by Leis et al (33). Detection of catecholamine compounds was performed using a LC-4C amperometric detector (Bioanalytical Systems) using potential of […]. Catecholamine levels are presented as pg/μg cell protein.

Series [11] concerns NHK. Nature of the series: HPLC detection of catecholamines in NHK supernatants. The format is cell-based, human. As to the method: as §5, §6
The conditions of series [12]: cited from earlier work.
Setting [13] is: BM-MSC, Timolol 10 μM, 30 min pretreatment.

`CNC[C@H](O)c1ccc(O)c(O)c1` [EPI, Epinephrine]: the “increase in IL-6 secretion as compared to untreated control cells” value with BM-MSC [1] (BM-MSC) stood at 3.8 fold. Further, in the series on BM-MSC [1] (EPI 50-1000 nM, 4 hr and 24 hr), the “EPI concentration of maximal induction of IL-6 secretion” value stood at 50 nM. Also, the “increase in IL-6 secretion as compared to untreated NHK” value in the series with NHK [2] was determined as 16 fold. In addition, the “TLR2 mRNA expression” value in the series with BM-MSC [3] (EPI 50 nM) is “significantly increased”. For the same molecule, in the series with BM-MSC [4], the BARK-1 phosphorylation result was “increased”. In the series with BM-MSC [4] (EPI 50 nM), the MyD88 protein expression result is reported as “significantly elevated” and the TLR2 protein levels result was “significantly increased”. For the same molecule, in the series on C57BL/6J mice, the wound closure result was “significantly decreased”, the “TLR2 expression in wound tissue” value is “increased”, the “IL-6 levels in the wound tissue” value is on record as “significantly elevated” and the “phosphorylation of ERK1/2 in wounds” value is “Decreased”. In addition, the “TNF-α production with LPS stimulation” value in the series on murine macrophages was “significantly increases”. In addition, the “TLR4 mRNA expression” value in [5] is listed as “decreases”.

With `OCc1cc(C(O)CNCCCCCCOCCCCc2ccccc2)ccc1O` (stereo not drawn) [salmeterol], in the series with RAW 264.7 macrophages, the “IL-1β and IL-6 protein production” value is recorded as “significant increase”; the “increase in IL-1β transcripts” value is on record as 80 fold; the “increase in IL-6 transcripts” value is 8 fold.

Take `Cc1ccc(OCC(O)C(C)NC(C)C)c2c1CCC2` (stereo not drawn) [ICI 118,551]: the “IL-6 release by human keratinocytes under β adrenergic receptor antagonist” value with NHK [2] is given as “suppression”. Also, in the series on NHK [6], the “IL-6 secretion in wounded NHK confluent sheets” value is reported as “reverses” and the “effect on EPI+MALP2 or EPI+HKSA delayed NHK migration” value was “reverses”. In addition, in the series with C57BL/6J mice, the wound closure entry was “reversed”, the “TLR2 expression in wound tissue” value is recorded as “reversed”, the “IL-6 levels in the wound tissue” value is on record as “decreased” and the “phosphorylation of ERK1/2 in wounds” value is listed as “increases”. The “migratory speed of bone marrow derived MSC” value in the series on Bone marrow MSCs is given as “increase migratory speed”.

As for MALP2, the “increase in IL-6 secretion as compared to untreated control cells” value in the series on BM-MSC [1] (BM-MSC) is 2.6 fold. For the same molecule, in the series with NHK [2], the “increase in IL-6 secretion as compared to untreated NHK” value was determined as 8.8 fold. Moreover, in the series with BM-MSC [7], the “inhibition in migratory speed” value was 15%. The “β2-adrenergic receptor mRNA expression” value with BM-MSC [3] (MALP2 100 ng/ml) is “significantly up-regulated”. Further, the BARK-1 phosphorylation result with BM-MSC [4] is recorded as “significantly increased”. Besides, the “PNMT and TH enzymes” value with BM-MSC [4] and in the series with NHK [8] was “induced” each time. Further, in the series on BM-MSC [4] (MALP2 100 ng/ml), the “β2-adrenergic receptor protein expression” value was “significantly up-regulated”. Moreover, the “β2-AR expression and BARK-1 phosphorylation in TLR2 immunoprecipitates” value in the series on NHK [9] is recorded as “noticeable increase”. The “EPI and norepinephrine levels in cell culture supernatants” value is on record as “increased” with BM-MSC [10] and “increased” in the series on NHK [11] (NHK, MALP2 100 ng/ml). For the same molecule, the “catecholamine response of NHKs relative to BM-MSC” value in the series on NHK [11] (MALP2 treated) was 2-4 fold.

`CC(C)(C)NCC(O)COc1cccc2c1CC(O)C(O)C2` (stereo not drawn) [Nadolol]: the lipid solubility result in series [12] is “low”.

As for Polymyxin B, the “effect of pretreatment on EPI or MALP2 induced IL-6 levels” value in the series with BM-MSC [1] (BM-MSC, endotoxin control) is “did not affect”.

On to `CC(C)(C)NC[C@H](O)COc1nsnc1N1CCOCC1` [Timolol], for which, in the series with BM-MSC [1] (setting [13]), the “decrease of EPI+HKSA induced IL-6 secretion by pretreatment” value came out at 1.5 fold and the “decrease of EPI+MALP2 induced IL-6 secretion by pretreatment” value was 33 fold. Further, the IL-6 levels in the series with BM-MSC [1] (BM-MSC, mean±SD, antagonist 10 μM, 30 min pretreatment) is reported as 4.8±2.7 pg/μg protein. In the series with NHK [2], the “IL-6 release by human keratinocytes under β adrenergic receptor antagonist” value was “suppression”. For the same molecule, in the series with NHK [6], the “IL-6 secretion in wounded NHK confluent sheets” value is “reverses” and the “effect on EPI+MALP2 or EPI+HKSA delayed NHK migration” value is given as “reverses”. In the series on Bone marrow MSCs, the “migratory speed of bone marrow derived MSC” value is “increase migratory speed”.
